Results on two molecules are retold here after patent US11464763B2, “Parasiticidal compositions comprising an isoxazoline active agent, methods and uses thereof” (BOEHRINGER INGELHEIM ANIMAL HEALTH USA INC., priority 2011, dated 2022).

The structures appear in SMILES notation. ≈ marks a conversion by molar mass, not a printed value.

The conditions of data set [1]: 20° C. and pH of 7; cited from earlier work.
The subject of a further data set is Ctenocephalides felis. The data set is described as follows: Spot-on efficacy of Compound A, pyriproxyfen and nitenpyram against Ctenocephalides felis fleas in cats (Example 11). To be noted: Group 5: 2.08% nitenpyram alone in Transcutol, 5.0 mg/kg. Format: in vivo. How it is done: The efficacy of three spot-on compositions comprising a combination of Compound A, pyriproxyfen and nitenpyram against Ctenocephalides felis fleas in cats was studied and compared with an untreated control and with a spot-on composition comprising nitenpyram alone. Cats were allocated into five Treatment Groups with 5 cats per group: Group 1—cats were untreated (control); Group 2—cats were treated spot-on solution containing 0.83% (w/v) Compound A, 2.08% (w/v) nitenpyram, and 4.17% (w/v) pyriproxyfen in Transcutol® to deliver doses of 1.0 mg/kg Compound A, 2.5 mg/kg nitenpyram and 5.0 mg/kg pyriproxyfen; Group 3—cats were treated a spot-on solution containing 0.83% (w/v) Compound A, 4.17% (w/v) nitenpyram, and 4.17% (w/v) pyriproxyfen in Transcutol® to deliver doses of 1.0 mg/kg Compound A, 5.0 mg/kg nitenpyram and 5.0 mg/kg pyriproxyfen; Group 4—cats were treated with a spot-on composition containing 0.83% (w/v) Compound A, 8.33% (w/v) nitenpyram and 4.17% (w/v) pyriproxyfen in Transcutol® to deliver doses of 1.0 mg/kg Compound A, 10.0 mg/kg nitenpyram and 5.0 mg/kg pyriproxyfen; Group 5—cats were treated with a spot-on composition containing 2.08% (w/v) nitenpyram alone in Transcutol® to deliver a dose of 5.0 mg/kg body weight.
Treatment was administered once on Day 0. The cats were each infested with approximately 100 C. felis fleas at day −1, on Day 0 approximately 12 hours post treatment and then on Days 1 (approx. 24 hours post treatment), 2, 7, 14, 21, 28 and 35. After each infestation, fleas were removed and counted approximately 12 hours (±3) on Day 0, and then on Days 1, 2, 8, 15, 22, 29 and 36 (24±3 hours after infestation).

The conditions of data set [2]: 14C radiolabeled drug, beagle dogs, spot-on administration; cited from earlier work.

Turning to `CCN(Cc1ccc(Cl)nc1)/C(=C/[N+](=O)[O-])NC` [nitenpyram], in data set [1], the solubility in water is 840 mg/mL (≈ 3100 mM). Also, the “% Reduction” value is given as 99.44% in the data set with Ctenocephalides felis (Day 0 (12 h)); 99.79% in the data set with Ctenocephalides felis (Day 1 (24 h)); 100.00% with Ctenocephalides felis (Day 2 (24 h)); 100.00% in the data set with Ctenocephalides felis (Day 8 (24 h)); 96.76% in the data set on Ctenocephalides felis (Day 15 (24 h)); 93.63% with Ctenocephalides felis (Day 22 (24 h)).

On to `N#Cc1nn(-c2c(Cl)cc(C(F)(F)F)cc2Cl)c(N)c1[S+]([O-])C(F)(F)F` (centres unmarked) [fipronil], for which the “persistently detected in the whole skin after treatment” value in data set [2] is on record as “up to 56 days”.
